Data as given in ChEMBL document CHEMBL1153480, “Study on the potential anti-cancer activity of phosphonium and ammonium-based ionic liquids” (2009).

Tests used:
Format in all cases: functional
IGROV-1 [1] = experiment: cells; conditions: Homo sapiens
Description: Growth inhibition of human IGROV1 cells assessed as drug level required for 50% reduction in net protein increase by SRB assay relative to control

OVCAR-5 = experiment: cells; conditions: Homo sapiens
Description: Growth inhibition of human OVCAR5 cells assessed as drug level required for 50% reduction in net protein increase by SRB assay relative to control

RPMI-8226 [2] = experiment: cells; conditions: Homo sapiens
Description: Growth inhibition of human RPMI8226 cells assessed as cell growth at 10 uM by SRB assay

SNB-19 = experiment: cells; conditions: Homo sapiens
Description: Growth inhibition of human SNB19 cells assessed as drug level required for 50% reduction in net protein increase by SRB assay relative to control

OVCAR-3 [3] = experiment: cells; conditions: Homo sapiens
Description: Growth inhibition of human OVCAR-3 cells assessed as drug level required for 50% reduction in net protein increase by SRB assay relative to control

SR [4] = experiment: cells; conditions: Homo sapiens
Description: Growth inhibition of human SR cells assessed as drug level required for 50% reduction in net protein increase by SRB assay relative to control

IGROV-1 [5] = experiment: Cytotoxicity against human IGROV1 cells by SRB assay; conditions: read-out: LC50 (the source's name)
NCI-H226 [6] = experiment: cells; conditions: Homo sapiens
Description: Growth inhibition of human NCI-H226 cells assessed as cell growth at 10 uM by SRB assay

HL-60(TB) = experiment: cells; conditions: Homo sapiens
Description: Growth inhibition of human HL-60(TB) cells assessed as drug level required for 50% reduction in net protein increase by SRB assay relative to control

NCI/ADR-RES [7] = experiment: cells; conditions: Homo sapiens
Description: Growth inhibition of human NCI/ADR-RES cells assessed as drug level required for 50% reduction in net protein increase by SRB assay relative to control

SK-OV-3 [8] = experiment: cells; conditions: Homo sapiens
Description: Growth inhibition of human SKOV3 cells assessed as drug level required for 50% reduction in net protein increase by SRB assay relative to control

SW-620 [9] = experiment: Cytotoxicity against human SW620 cells by SRB assay; conditions: read-out: LC50 (the source's name)
HCT-15 = experiment: cells; conditions: Homo sapiens
Description: Growth inhibition of human HCT15 cells assessed as drug level required for 50% reduction in net protein increase by SRB assay relative to control

NCI-H23 [10] = experiment: Cytotoxicity against human NCI-H23 cells by SRB assay; conditions: read-out: LC50 (the source's name)
MDA-MB-468 = experiment: cells; conditions: Homo sapiens
Description: Growth inhibition of human MDA-MB-468 cells assessed as cell growth at 10 uM by SRB assay

SW-620 [11] = experiment: cells; conditions: Homo sapiens
Description: Growth inhibition of human SW620 cells assessed as cell growth at 10 uM by SRB assay

RPMI-8226 [12] = experiment: cells; conditions: Homo sapiens; remark: listed apart in the source
Description: Growth inhibition of human RPMI8226 cells assessed as drug level required for 50% reduction in net protein increase by SRB assay relative to control

SN12C [13] = experiment: cells; conditions: Homo sapiens
Description: Growth inhibition of human SN12C cells assessed as cell growth at 10 uM by SRB assay

M14 [14] = experiment: Cytotoxicity against human M14 cells by SRB assay; conditions: read-out: LC50 (the source's name)
A498 [15] = experiment: cells; conditions: Homo sapiens
Description: Growth inhibition of human A498 cells assessed as cell growth at 10 uM by SRB assay

A549 = experiment: cells; conditions: Homo sapiens
Description: Growth inhibition of human A549 cells assessed as drug level required for 50% reduction in net protein increase by SRB assay relative to control

RXF 393 = experiment: cells; conditions: Homo sapiens
Description: Growth inhibition of human RFX393 cells assessed as cell growth at 10 uM by SRB assay

UACC-62 = experiment: cells; conditions: Homo sapiens
Description: Growth inhibition of human UACC62 cells assessed as cell growth at 10 uM by SRB assay

SR [16] = experiment: cells; conditions: Homo sapiens; remark: listed apart in the source
Description: Growth inhibition of human SR cells assessed as cell growth at 10 uM by SRB assay

MDA-MB-435 = experiment: cells; conditions: Homo sapiens
Description: Growth inhibition of human MDA-MB-435 cells assessed as cell growth at 10 uM by SRB assay

KM12 [17] = experiment: Cytotoxicity against human KM12 cells by SRB assay; conditions: read-out: LC50 (the source's name)
DU-145 [18] = experiment: cells; conditions: Homo sapiens
Description: Growth inhibition of human DU145 cells assessed as cell growth at 10 uM by SRB assay

OVCAR-4 [19] = experiment: cells; conditions: Homo sapiens
Description: Growth inhibition of human OVCAR4 cells assessed as drug level required for 50% reduction in net protein increase by SRB assay relative to control

SF-539 = experiment: cells; conditions: Homo sapiens
Description: Growth inhibition of human SF539 cells assessed as cell growth at 10 uM by SRB assay

NCI-H226 [20] = experiment: cells; conditions: Homo sapiens; remark: listed apart in the source
Description: Growth inhibition of human NCI-H226 cells assessed as drug level required for 50% reduction in net protein increase by SRB assay relative to control

SF-268 [21] = experiment: cells; conditions: Homo sapiens
Description: Growth inhibition of human SF268 cells assessed as cell growth at 10 uM by SRB assay

MCF7 [22] = experiment: cells; conditions: Homo sapiens
Description: Growth inhibition of human MCF7 cells assessed as cell growth at 10 uM by SRB assay

cells [23] = conditions: Homo sapiens, CAKI
Description: Growth inhibition of human CAKI cells assessed as cell growth at 10 uM by SRB assay

786-0 [24] = experiment: cells; conditions: Homo sapiens
Description: Growth inhibition of human 786-0 cells assessed as drug level required for 50% reduction in net protein increase by SRB assay relative to control

HCT-116 [25] = experiment: cells; conditions: Homo sapiens
Description: Growth inhibition of human HCT116 cells assessed as drug level required for 50% reduction in net protein increase by SRB assay relative to control

HT-29 = experiment: Cytotoxicity against human HT-29 cells by SRB assay; conditions: read-out: LC50 (the source's name)
786-0 [26] = experiment: cells; conditions: Homo sapiens; remark: listed apart in the source
Description: Growth inhibition of human 786-0 cells assessed as cell growth at 10 uM by SRB assay

NCI/ADR-RES [27] = experiment: cells; conditions: Homo sapiens; remark: listed apart in the source
Description: Growth inhibition of human NCI/ADR-RES cells assessed as cell growth at 10 uM by SRB assay

SW-620 [28] = experiment: cells; conditions: Homo sapiens; remark: listed apart in the source
Description: Growth inhibition of human SW620 cells assessed as drug level required for 50% reduction in net protein increase by SRB assay relative to control

OVCAR-4 [29] = experiment: Cytotoxicity against human OVCAR4 cells by SRB assay; conditions: read-out: LC50 (the source's name)
HCC 2998 = experiment: cells; conditions: Homo sapiens
Description: Growth inhibition of human HCC2998 cells assessed as cell growth at 10 uM by SRB assay

NCI-H460 = experiment: Cytotoxicity against human NCI-H460 cells by SRB assay; conditions: read-out: LC50 (the source's name)
SNB-75 = experiment: cells; conditions: Homo sapiens
Description: Growth inhibition of human SNB75 cells assessed as cell growth at 10 uM by SRB assay

cells [30] = conditions: Homo sapiens, Hs-578T
Description: Growth inhibition of human Hs 578T cells assessed as cell growth at 10 uM by SRB assay

SF-295 [31] = experiment: Cytotoxicity against human SF295 cells by SRB assay; conditions: read-out: LC50 (the source's name)
SK-MEL-28 = experiment: cells; conditions: Homo sapiens
Description: Growth inhibition of human SK-MEL-28 cells assessed as cell growth at 10 uM by SRB assay

A498 [32] = experiment: cells; conditions: Homo sapiens; remark: listed apart in the source
Description: Growth inhibition of human A498 cells assessed as drug level required for 50% reduction in net protein increase by SRB assay relative to control

OVCAR-3 [33] = experiment: cells; conditions: Homo sapiens; remark: listed apart in the source
Description: Growth inhibition of human OVCAR-3 cells assessed as cell growth at 10 uM by SRB assay

CCRF-CEM = experiment: cells; conditions: Homo sapiens
Description: Growth inhibition of human CCRF-CEM cells assessed as cell growth at 10 uM by SRB assay

HCT-116 [34] = experiment: Cytotoxicity against human HCT116 cells by SRB assay; conditions: read-out: LC50 (the source's name)
OVCAR-4 [35] = experiment: cells; conditions: Homo sapiens; remark: listed apart in the source
Description: Growth inhibition of human OVCAR4 cells assessed as cell growth at 10 uM by SRB assay

SF-295 [36] = experiment: cells; conditions: Homo sapiens
Description: Growth inhibition of human SF295 cells assessed as cell growth at 10 uM by SRB assay

DU-145 [37] = experiment: Cytotoxicity against human DU145 cells by SRB assay; conditions: read-out: LC50 (the source's name)
HOP-62 = experiment: Cytotoxicity against human HOP62 cells by SRB assay; conditions: read-out: LC50 (the source's name)
NCI-H23 [38] = experiment: cells; conditions: Homo sapiens
Description: Growth inhibition of human NCI-H23 cells assessed as cell growth at 10 uM by SRB assay

UACC-257 = experiment: cells; conditions: Homo sapiens
Description: Growth inhibition of human UACC257 cells assessed as cell growth at 10 uM by SRB assay

SK-MEL-5 = experiment: cells; conditions: Homo sapiens
Description: Growth inhibition of human SK-MEL-5 cells assessed as cell growth at 10 uM by SRB assay

M14 [39] = experiment: cells; conditions: Homo sapiens
Description: Growth inhibition of human M14 cells assessed as cell growth at 10 uM by SRB assay

PC-3 = experiment: cells; conditions: Homo sapiens
Description: Growth inhibition of human PC3 cells assessed as cell growth at 10 uM by SRB assay

SF-268 [40] = experiment: cells; conditions: Homo sapiens; remark: listed apart in the source
Description: Growth inhibition of human SF268 cells assessed as drug level required for 50% reduction in net protein increase by SRB assay relative to control

COLO 205 = experiment: Cytotoxicity against human COLO205 cells by SRB assay; conditions: read-out: LC50 (the source's name)
KM12 [41] = experiment: cells; conditions: Homo sapiens
Description: Growth inhibition of human KM12 cells assessed as drug level required for 50% reduction in net protein increase by SRB assay relative to control

SK-OV-3 [42] = experiment: Cytotoxicity against human SKOV3 cells by SRB assay; conditions: read-out: LC50 (the source's name)
SK-OV-3 [43] = experiment: cells; conditions: Homo sapiens; remark: listed apart in the source
Description: Growth inhibition of human SKOV3 cells assessed as cell growth at 10 uM by SRB assay

SN12C [44] = experiment: cells; conditions: Homo sapiens; remark: listed apart in the source
Description: Growth inhibition of human SN12C cells assessed as drug level required for 50% reduction in net protein increase by SRB assay relative to control

MCF7 [45] = experiment: cells; conditions: Homo sapiens; remark: listed apart in the source
Description: Growth inhibition of human MCF7 cells assessed as drug level required for 50% reduction in net protein increase by SRB assay relative to control

786-0 [46] = experiment: cells; conditions: Homo sapiens, read-out: LC50 (the source's name)
Description: Cytotoxicity against human 786-0 cells by SRB assay

K562 = experiment: cells; conditions: Homo sapiens
Description: Growth inhibition of human K562 cells assessed as drug level required for 50% reduction in net protein increase by SRB assay relative to control

M14 [47] = experiment: cells; conditions: Homo sapiens; remark: listed apart in the source
Description: Growth inhibition of human M14 cells assessed as drug level required for 50% reduction in net protein increase by SRB assay relative to control

LOX IMVI = experiment: cells; conditions: Homo sapiens
Description: Growth inhibition of human LOXIMVI cells assessed as cell growth at 10 uM by SRB assay

NCI-H23 [48] = experiment: cells; conditions: Homo sapiens; remark: listed apart in the source
Description: Growth inhibition of human NCI-H23 cells assessed as drug level required for 50% reduction in net protein increase by SRB assay relative to control

SF-295 [49] = experiment: cells; conditions: Homo sapiens; remark: listed apart in the source
Description: Growth inhibition of human SF295 cells assessed as drug level required for 50% reduction in net protein increase by SRB assay relative to control

**Q.** What does the source list for CCCCCCCCCCCCCCCCCCPCCCCCCCCCCCCCC.O=S(=O)(NS(=O)(=O)C(F)(F)F)C(F)(F)F (configuration not stated)?
**A.** GI50 (IGROV-1 [1]): 71 nM; GI50 (OVCAR-5): 318 nM; growth at 10 µM (RPMI-8226 [2]): 59.4%; GI50 (SNB-19): 69 nM; GI50 (OVCAR-3 [3]): 51 nM; GI50 (SR [4]): 72 nM; CC50 (IGROV-1 [5]): > 100000 nM; growth at 10 µM (NCI-H226 [6]): -1.45%; GI50 (HL-60(TB)): 46 nM; GI50 (NCI/ADR-RES [7]): 730 nM; GI50 (SK-OV-3 [8]): 2610 nM; CC50 (SW-620 [9]): > 100000 nM; GI50 (HCT-15): 291 nM; CC50 (NCI-H23 [10]): > 100000 nM; growth at 10 µM (MDA-MB-468): -88.3%; growth at 10 µM (SW-620 [11]): -86.3%; GI50 (RPMI-8226 [12]): 16 nM; growth at 10 µM (SN12C [13]): -79.1%; CC50 (M14 [14]): > 100000 nM; growth at 10 µM (A498 [15]): -48.3%; GI50 (A549): 292 nM; growth at 10 µM (RXF 393): -97.7%; growth at 10 µM (UACC-62): -28.1%; growth at 10 µM (SR [16]): 62.4%; growth at 10 µM (MDA-MB-435): -81%; CC50 (KM12 [17]): > 100000 nM; growth at 10 µM (DU-145 [18]): -100%; GI50 (OVCAR-4 [19]): 73 nM; growth at 10 µM (SF-539): 5.67%; GI50 (NCI-H226 [20]): 105 nM; growth at 10 µM (SF-268 [21]): -4.6%; growth at 10 µM (MCF7 [22]): -51.8%; growth at 10 µM (cells [23]): 4.01%; GI50 (786-0 [24]): 253 nM; GI50 (HCT-116 [25]): 61 nM; CC50 (HT-29): > 100000 nM; growth at 10 µM (786-0 [26]): -65.8%; growth at 10 µM (NCI/ADR-RES [27]): -10.5%; GI50 (SW-620 [28]): 49 nM; CC50 (OVCAR-4 [29]): > 100000 nM; growth at 10 µM (HCC 2998): -24.4%; CC50 (NCI-H460): > 100000 nM; growth at 10 µM (SNB-75): -31.4%; growth at 10 µM (cells [30]): -35.8%; CC50 (SF-295 [31]): > 100000 nM; growth at 10 µM (SK-MEL-28): -97.8%; GI50 (A498 [32]): 310 nM; growth at 10 µM (OVCAR-3 [33]): -100%; growth at 10 µM (CCRF-CEM): 26.4%; CC50 (HCT-116 [34]): > 100000 nM; growth at 10 µM (OVCAR-4 [35]): -91.8%; growth at 10 µM (SF-295 [36]): -68.4%; CC50 (DU-145 [37]): > 100000 nM; CC50 (HOP-62): > 100000 nM; growth at 10 µM (NCI-H23 [38]): -39.3%; growth at 10 µM (UACC-257): -34.6%; growth at 10 µM (SK-MEL-5): -100%; growth at 10 µM (M14 [39]): -83.9%; growth at 10 µM (PC-3): -78.1%; GI50 (SF-268 [40]): 72 nM; CC50 (COLO 205): > 100000 nM; GI50 (KM12 [41]): 49 nM; CC50 (SK-OV-3 [42]): > 100000 nM; growth at 10 µM (SK-OV-3 [43]): -3.34%; GI50 (SN12C [44]): 42 nM; GI50 (MCF7 [45]): 144 nM; CC50 (786-0 [46]): > 100000 nM; GI50 (K562): 41 nM; GI50 (M14 [47]): 52 nM; growth at 10 µM (LOX IMVI): -68.5%; GI50 (NCI-H23 [48]): 192 nM; GI50 (SF-295 [49]): 205 nM
